Results published in patent US8481757B2, “Compounds and compositions useful in the treatment of malaria” (Georgua Tech Research Corporation, priority 2010, dated 2013).
Where two headings read alike, the source gives them in different places.

What was measured:
[1] = test system: Plasmodium falciparum parasites (3D7 strain); experiment: SYBR Green based parasite proliferation assay (antimalarial activity); assay type: cell-based
heme crystallization = experiment: Inhibition of heme crystallization; assay type: biochemical; details: molar equivalents of drug to heme
[2] = test system: Plasmodium falciparum parasites (3D7 strain); details: from Hawley et al. (Antimicrob Agents Chemother 1998, 42: 682); cited from earlier work
[3] = test system: Plasmodium falciparum HB3 (chloroquine-sensitive parasite); details: from Hawley et al. (Antimicrob Agents Chemother 1998, 42: 682); cited from earlier work
[4] = test system: Plasmodium falciparum Dd2 (chloroquine-resistant parasite); experiment: Efficacy against Plasmodium falciparum Dd2; assay type: cell-based
[5] = test system: Plasmodium falciparum HB3 (chloroquine-sensitive parasite); experiment: Efficacy against Plasmodium falciparum HB3; assay type: cell-based
Cytotoxicity, Vero = assay type: cell-based; details: African green monkey, Vero cells
Cytotoxicity, J774 = assay type: cell-based; details: mouse, J774 cells
Cytotoxicity, HepG2 = assay type: cell-based; details: human, HepG2 cells
[6] = Plasmodium falciparum, 3D7, Table 5, Example 5 numbering (1-13), read-out: P. falciparum (3D7) IC50
[7] = Plasmodium falciparum, 3D7, Table 1, Example 1 numbering (1-18), read-out: Antimalarial IC50

CC1=C2Cc3cc(ccc3O)C(=O)O[C@H](C(C)(C)Br)CC[C@](C)(O)/C=C\C[C@]2(C)C=CC1 [Compound 11]
IC50 [1, 6]: 4600 nM

CC1=CC[C@@H]2O[C@@]2(C)CC[C@@H](C(C)(C)O)OC(=O)c2ccc(O)c(c2)CC2=C(C)CCC12 (stereo partly shown) [Compound 18]
IC50 [1, 7]: > 100000 nM

CCN(CC)Cc1cc(Nc2ccnc3cc(Cl)ccc23)ccc1O [AMQ, amodiaquine]
IC50 for heme crystallization (heme crystallization): 1.2 ± 0.19 equivalents
IC50 [2]: 7.8 nM
IC50 [3]: 8.5 nM

debromophycolide A [Compound 18 (Example 1)]
IC50 ([1]; Table 4, Example 3 numbering (1-3), read-out: Antimalarial activity IC50): > 100000 nM

C=C1CC[C@H](Br)[C@@]2(C)CC[C@@H]3O[C@@]3(C)CC[C@@H](C(C)(C)O)OC(=O)c3ccc(O)c(c3)C[C@H]12 [Compound 14]
IC50 [1, 7]: 18000 nM

CC1=C2Cc3cc(ccc3O)C(=O)O[C@H](C(C)(C)Br)CC[C@](C)(O)[C@H](Br)CC[C@]2(C)[C@@H](Br)CC1 [Compound 1]
IC50 [1, 6]: 650 nM
IC50 ([1]; Plasmodium falciparum, 3D7, chloroquine-sensitive parasite, Table 6, Example 5 numbering, read-out: 3D7 IC50): 658 nM
IC50 ([1]; Table 5, Example 5 numbering (1-13), read-out: P. falciparum (3D7) IC50): 660 nM
IC50 [4]: 497 nM
IC50 [5]: 565 nM
IC50 for heme crystallization (heme crystallization): 2.5 ± 0.13 equivalents
IC50 (Cytotoxicity, Vero): 34600 nM
IC50 (Cytotoxicity, J774): 19000 nM
IC50 (Cytotoxicity, HepG2): 21300 nM
